The IC50 is the concentration needed to halve the response being measured.

Some results are limits rather than exact numbers.

This passage reports IC50 results from patent US10683290B2, “Tricyclic compounds as anticancer agents” (BRISTOL-MYERS SQUIBB COMPANY, priority 2015, dated 2020).

The experiment addresses BRD4 (Homo sapiens, UniProt O60885). Kind of experiment: biochemical. The format is binding. The following applies: one of the FRET assays described; read-out: FRET BRD4 IC50.
In the case of `Cc1nnn(C)c1-c1cc2c(cc1F)c1ncc(C(C)(C)O)cc1n2C(c1ncccn1)C1CCOCC1` (single isomer, unassigned) [Example 55], the IC50 was under 1500 nM.

For the compound `[2H]C([2H])([2H])c1nnn(C)c1-c1ccc2c3ncc(C(C)(C)O)cc3n(C(c3cc(C)on3)C3CCOCC3)c2c1` (single isomer, unassigned) [Example 73, 2-{5-[(5-methyl-1,2-oxazol-3-yl)(oxan-4-yl)methyl]-7-[4-(^2H3)methyl-1-methyl-1H-1,2,3-triazol-5-yl]-5H-pyrido[3,2-b]indol-3-yl}propan-2-ol], the IC50 was under 5 nM.

With `[2H]C([2H])([2H])c1onc(C)c1-c1cc2c(cc1F)c1ncc(C(C)(C)O)cc1n2[C@H](c1ccccc1)C1CCOCC1` [Example 33, 2-{8-Fluoro-7-[5-(^2H3)methyl-3-methyl-1,2-oxazol-4-yl]-5-[(S)-(oxan-4-yl)(phenyl)methyl]-5H-pyrido[3,2-b]indol-3-yl}propan-2-ol], the IC50 is under 1 nM.

For the compound `Cc1nnn(C)c1-c1cc(F)c2c3ncc(C(C)(C)O)cc3n(C(CCC(F)(F)F)CCC(F)(F)F)c2c1` [Example 10, 2-[7-(Dimethyl-1H-1,2,3-triazol-5-yl)-9-fluoro-5-(1,1,1,7,7,7-hexafluoroheptan-4-yl)-5H-pyrido[3,2-b]indol-3-yl]propan-2-ol], the half-maximal inhibitory concentration (IC50) was under 5 nM.

With `Cc1nnn(C)c1-c1ccc2c3ncc(C(=O)O)cc3n([C@H](c3ccccc3F)C3CCOCC3)c2c1` [Example 29, 7-(Dimethyl-1H-1,2,3-triazol-5-yl)-5-[(S)-(2-fluorophenyl)(oxan-4-yl)methyl]-5H-pyrido[3,2-b]indole-3-carboxylic acid], the half-inhibitory concentration (IC50) is under 5 nM.

On to `[2H]C([2H])([2H])c1nnn(C)c1-c1cc2c(cc1F)c1ncc(C(C)(C)O)cc1n2C(c1ccccc1)C1COC1` (single isomer, unassigned) [Example 67, 2-{8-fluoro-7-[4-(^2H3)methyl-1-methyl-1H-1,2,3-triazol-5-yl]-5-[oxetan-3-yl(phenyl)methyl]-5H-pyrido[3,2-b]indol-3-yl}propan-2-ol], for which the IC50 is under 5 nM.

With `[2H]C([2H])([2H])c1nnn(C)c1-c1cc2c(cc1Cl)c1ncc(C(C)(C)O)cc1n2C(CCC)c1ncccc1F` (single isomer, unassigned) [Example 83, 2-{8-chloro-5-[1-(3-fluoropyridin-2-yl)butyl]-7-[4-(^2H3)methyl-1-methyl-1H-1,2,3-triazol-5-yl]-5H-pyrido[3,2-b]indol-3-yl}propan-2-ol], the IC50 was under 5 nM.

Turning to `[2H]C([2H])([2H])c1nnn(C)c1-c1cc2c(cc1F)c1ncc(C(C)(C)O)cc1n2C(c1cc(C)ccn1)C1CCOCC1` (single isomer, unassigned) [Example 53, 2-{8-fluoro-7-[4-(^2H3)methyl-1-methyl-1H-1,2,3-triazol-5-yl]-5-[(4-methylpyridin-2-yl)(oxan-4-yl)methyl]-5H-pyrido[3,2-b]indol-3-yl}propan-2-ol], the concentration for half-maximal inhibition (IC50) was under 1500 nM.

For the compound `[2H]C([2H])([2H])c1nnn(C)c1-c1cc2c(cc1F)c1ncc(C(C)(C)O)cc1n2C(c1ccc(C)cn1)C1CCOCC1` (single isomer, unassigned) [Example 56, 2-{8-fluoro-7-[4-(^2H3)methyl-1-methyl-1H-1,2,3-triazol-5-yl]-5-[(5-methylpyridin-2-yl)(oxan-4-yl)methyl]-5H-pyrido[3,2-b]indol-3-yl}propan-2-ol], the IC50 was under 5 nM.

Take `Cc1nnn(C)c1-c1cc2c(cc1F)c1ncc(C(C)(O)C3CC3)cc1n2[C@H](c1ccccc1F)C1CCOCC1` (single isomer, unassigned) [Example 24]: the IC50 was under 5 nM.

In the case of `[2H]C([2H])([2H])c1nnn(C)c1-c1cc2c(cc1F)c1ncc(C(C)(C)O)cc1n2C(c1ncccc1C)C1CCOCC1` (single isomer, unassigned) [Example 42, 2-{8-fluoro-7-[4-(^2H3)methyl-1-methyl-1H-1,2,3-triazol-5-yl]-5-[(3-methylpyridin-2-yl)(oxan-4-yl)methyl}-5H-pyrido[3,2-b]indol-3-yl]propan-2-ol], the half-maximal inhibitory concentration (IC50) is under 5 nM.

Regarding `[2H]C([2H])([2H])c1nnn(C)c1-c1ccc2c3ncc(C(C)(C)O)cc3n(C(c3cc(C)on3)C3CCOCC3)c2c1` (single isomer, unassigned) [Example 74, 2-{5-[(5-methyl-1,2-oxazol-3-yl)(oxan-4-yl)methyl]-7-[4-(^2H3)methyl-1-methyl-1H-1,2,3-triazol-5-yl]-5H-pyrido[3,2-b]indol-3-yl}propan-2-ol], the IC50 is under 1500 nM.

On to `Cc1nnn(C)c1-c1ccc2c3ncc(C(C)(C)O)cc3n(C(CCC(F)(F)F)c3ccccn3)c2c1` (single isomer, unassigned) [Example 7, 2-[7-(dimethyl-1H-1,2,3-triazol-5-yl)-5-[4,4,4-trifluoro-1-(pyridin-2-yl)butyl]-5H-pyrido[3,2-b]indol-3-yl]propan-2-ol], for which the IC50 is under 5 nM.

For the compound `[2H]C([2H])([2H])c1nnn(C)c1-c1cc2c(cc1Cl)c1ncc(C(C)(C)O)cc1n2C(CCC)c1ncccc1F` (single isomer, unassigned) [Example 82, 2-{8-chloro-5-[1-(3-fluoropyridin-2-yl)butyl]-7-[4-(^2H3)methyl-1-methyl-1H-1,2,3-triazol-5-yl]-5H-pyrido[3,2-b]indol-3-yl}propan-2-ol], the IC50 was under 1500 nM.

As to `[2H]C([2H])([2H])c1nnn(C)c1-c1cc2c(cc1F)c1ncc(C(C)(C)O)cc1n2C(CCC)c1ccccn1` (single isomer, unassigned) [Example 49, 2-{8-fluoro-7-[4-(^2H3)methyl-1-methyl-1H-1,2,3-triazol-5-yl]-5-[1-(pyridin-2-yl)butyl]-5H-pyrido[3,2-b]indol-3-yl}propan-2-ol], the concentration for half-maximal inhibition (IC50) is under 5 nM.

In the case of `Cc1noc(C)c1-c1ccc2c3ncc(C(C)(C)O)cc3n([C@H](c3ccccc3)C3CCOCC3)c2c1F` [Example 17, 2-[7-(Dimethyl-1,2-oxazol-4-yl)-6-fluoro-5-[(S)-oxan-4-yl(phenyl)methyl]-5H-pyrido[3,2-b]indol-3-yl]propan-2-ol], the IC50 is under 5 nM.

As to `CCCC(CCC)n1c2cc(-c3c(C)nnn3C)ccc2c2ncc(C(C)(C)O)cc21` [Example 5, 2-[7-(dimethyl-1H-1,2,3-triazol-5-yl)-5-(heptan-4-yl)-5H-pyrido[3,2-b]indol-3-yl]propan-2-ol], the half-inhibitory concentration (IC50) is under 5 nM.

Take `Cc1ccc2c(n1)c1ccc(-c3c(C)noc3C)cc1n2Cc1ccccc1` [Example 2, 4-{5-Benzyl-2-methyl-5H-pyrido[3,2-b]indol-7-yl}-3,5-dimethyl-1,2-oxazole]: the half-inhibitory concentration (IC50) is under 1500 nM.

As to `[2H]C([2H])([2H])c1nnn(C)c1-c1cc2c(cc1Cl)c1ncc(C(C)(C)O)cc1n2C(c1ccccn1)C1CCOCC1` (single isomer, unassigned) [Example 80, 2-{8-chloro-7-[4-(^2H3)methyl-1-methyl-1H-1,2,3-triazol-5-yl]-5-[oxan-4-yl(pyridin-2-yl)methyl]-5H-pyrido[3,2-b]indol-3-yl}propan-2-ol], the IC50 was under 1500 nM.

As to `Cc1nnn(C)c1-c1cc2c(cc1F)c1ncc(C(C)(C)O)cc1n2C(c1ccc(F)cn1)C1CCOCC1` (single isomer, unassigned) [Example 70, 2-[7-(dimethyl-1H-1,2,3-triazol-5-yl)-8-fluoro-5-[(5-fluoropyridin-2-yl)(oxan-4-yl)methyl]-5H-pyrido[3,2-b]indol-3-yl]propan-2-ol], the 50% inhibitory concentration (IC50) is under 5 nM.
